Target: PRMT3 (Homo sapiens, UniProt O60678)
Test: Fluorescence-based SAHH-coupled PRMT3 methylation assay
Assay type: biochemical

Chain of PRMT3 (O60678 211-531): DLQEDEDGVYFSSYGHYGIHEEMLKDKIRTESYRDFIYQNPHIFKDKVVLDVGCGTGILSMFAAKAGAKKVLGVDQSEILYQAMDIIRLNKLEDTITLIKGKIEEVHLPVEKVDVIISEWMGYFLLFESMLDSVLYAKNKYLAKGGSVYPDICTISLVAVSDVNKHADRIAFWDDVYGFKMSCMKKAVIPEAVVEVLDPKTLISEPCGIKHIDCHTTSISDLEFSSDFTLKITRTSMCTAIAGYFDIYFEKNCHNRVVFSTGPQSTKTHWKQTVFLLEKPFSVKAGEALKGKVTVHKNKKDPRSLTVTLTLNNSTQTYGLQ

SMILES | fold reduction in PRMT3 inhibition (compared to YD1113) | further results
Nc1ncnc2c1ncn2[C@@H]1O[C@H](CSCCNC(=O)NCc2ccc(F)cc2)[C@@H](O)[C@H]1O [Compound 1e] | over 10 fold | –
Nc1ncnc2c1ncn2[C@@H]1O[C@H](CSCCNC(=O)Nc2ccc(F)cc2)[C@@H](O)[C@H]1O [Compound 1i] | 4 fold | –
Nc1ncnc2c1ncn2[C@@H]1O[C@H](CSCCNC(=O)Nc2cccc3ccccc23)[C@@H](O)[C@H]1O [Compound 1k] | – | fold reduction in PRMT3 inhibition (compared to phenyl (1h)): over 40 fold
Nc1ncnc2c1ncn2[C@@H]1O[C@H](CSCCNC(=O)Nc2ccc(Cl)cc2)[C@@H](O)[C@H]1O [Compound 1j] | – | fold reduction in PRMT3 inhibition (compared to 1i): 10 fold
Nc1ncnc2c1ncn2[C@@H]1O[C@H](CSCCNC(=O)NCc2ccccc2)[C@@H](O)[C@H]1O [Compound 1c] | – | fold increased inhibition for PRMT3 (compared to 1b (linker 3C to 2C)): 140 fold
Nc1ncnc2c1ncn2[C@@H]1O[C@H](CSCCNC(=O)Nc2ccccc2)[C@@H](O)[C@H]1O [Compound 1h] | 4 fold | –

Source: publication PMC10692381 (Acta Pharmaceutica Sinica. B, 2023)
